Test results taken from patent US20250368649A1, “TETRAHYDROPYRIDOPYRIMIDINE PAN-KRAS INHIBITORS” (Mirati Therapeutics, Inc., priority 2022, published 2025).

What was measured:
MKN1 cells = experiment: Inhibition of KRas-mediated phosphorylation of ERK (Cisbio HTRF pERK), MKN1 cells; assay type: cell-based; conditions: Homo sapiens
Protocol: (§1) Inhibition of KRas Phosphorylation of ERK (HTRF) by Exemplary Compounds of Formula (I) Cisbio HTRF Advanced pERK Assay Catalog #64AERPEH • Cells: MKN1, PSN1 • Procedure: • Day 1: Seed 6,000 cells/well -25 µl/well in 384-well white solid bottom plate; RPM1_10% FBS.

ASPC1 cells = experiment: Inhibition of KRas-mediated phosphorylation of ERK (Cisbio HTRF pERK), ASPC1 cells; assay type: cell-based; conditions: Homo sapiens, ASPC1, 3 h, AsPC-1 cells, 3 hr compound incubation
KRas G12D = KRas G12D (Homo sapiens, UniProt P01116, G12D); experiment: biochemical; conditions: Binding to KRas (IC50 nM) G12D, TR-FRET displacement, KRas G12D
A549 cells = experiment: Inhibition of KRas-mediated phosphorylation of ERK (Cisbio HTRF pERK), A549 cells; assay type: cell-based; conditions: Homo sapiens, A549, 3 h, 3 hr compound incubation, Cisbio pERK HTRF
H727 cells = experiment: Inhibition of KRas-mediated phosphorylation of ERK (Cisbio HTRF pERK), H727 cells; assay type: cell-based; conditions: Homo sapiens, NCI-H727, 3 h, 3 hr compound incubation
PSN1 cells = experiment: Inhibition of KRas-mediated phosphorylation of ERK (Cisbio HTRF pERK), PSN1 cells; assay type: cell-based; conditions: Homo sapiens, PSN1, 3 h
Protocol: as §1

KRas G12R = KRas G12R (Homo sapiens, UniProt P01116, G12R); experiment: biochemical; conditions: Binding to KRas (IC50 nM) G12R, TR-FRET displacement, KRas G12R
KRas G12V = KRas G12V (Homo sapiens, UniProt P01116, G12V); experiment: biochemical; conditions: Binding to KRas (IC50 nM) G12V, TR-FRET displacement, KRas G12V
HCT116 cells = experiment: Inhibition of KRas-mediated phosphorylation of ERK (Cisbio HTRF pERK), HCT116 cells; assay type: cell-based; conditions: Homo sapiens, HCT-116, 3 h, 3 hr compound incubation, Cisbio pERK HTRF
[1] = MKN-1, 3 hour compound incubation, Cisbio pERK HTRF
[2] = 3 hour compound incubation, Cisbio pERK HTRF
[3] = MKN-1, 3 hr compound incubation

Sequence of KRas G12R (P01116 1-169 isoform P01116-2 G12R): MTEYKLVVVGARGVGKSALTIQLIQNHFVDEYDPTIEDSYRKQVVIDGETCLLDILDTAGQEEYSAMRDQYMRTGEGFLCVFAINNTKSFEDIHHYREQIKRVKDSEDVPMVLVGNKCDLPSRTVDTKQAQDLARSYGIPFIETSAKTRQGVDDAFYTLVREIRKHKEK
Sequence of KRas G12D (P01116 1-169 isoform P01116-2 G12D): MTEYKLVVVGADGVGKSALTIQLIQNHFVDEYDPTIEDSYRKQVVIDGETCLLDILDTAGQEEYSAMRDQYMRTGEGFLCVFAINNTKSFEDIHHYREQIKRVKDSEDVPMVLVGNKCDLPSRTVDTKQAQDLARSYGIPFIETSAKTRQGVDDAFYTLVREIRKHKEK
Sequence of KRas G12V (P01116 1-169 isoform P01116-2 G12V): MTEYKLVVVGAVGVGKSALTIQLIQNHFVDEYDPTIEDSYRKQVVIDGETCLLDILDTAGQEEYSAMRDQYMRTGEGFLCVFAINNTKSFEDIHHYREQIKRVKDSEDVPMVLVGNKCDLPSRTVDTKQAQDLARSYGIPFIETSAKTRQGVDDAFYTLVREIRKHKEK

Structure (SMILES) | IC50 (MKN1 cells; [1]) [nM] | IC50 (ASPC1 cells; Cisbio pERK HTRF) [nM] | IC50 (KRas G12D) [nM] | IC50 (A549 cells) [nM] | IC50 (H727 cells; Cisbio pERK HTRF) [nM] | IC50 (PSN1 cells; [2]) [nM] | IC50 (KRas G12R) [nM] | IC50 (KRas G12V) [nM] | IC50 (HCT116 cells) [nM] | IC50 (MKN1 cells; [3]) [nM] | IC50 (ASPC1 cells) [nM] | IC50 (H727 cells) [nM] | IC50 (PSN1 cells; 3 hr compound incubation) [nM]
CCc1c(F)ccc2cc(O)cc(N3CCc4c(nc(OC[C@@]56CCCN5C[C@H](F)C6)nc4N4CCCn5nc(N(C)C)cc5C4)C3)c12 [Example 405, 4-(4-(2-(dimethylamino)-7,8-dihydro-4H-pyrazolo[1,5-a][1,4]diazepin-5(6H)-yl)-2-(((2R,7aS)-2-fluorotetrahydro-1H-pyrrolizin-7a(5H)-yl)methoxy)-5,8-dihydropyrido[3,4-d]pyrimidin-7(6H)-yl)-5-ethyl-6-fluoronaphthalen-2-ol] | 99.9 | 339 | 5 | 273 | 308 | > 10000 | 3 | 9 |  |  |  |  | 
CCc1c(F)ccc2cc(O)cc(N3CCc4c(nc(OC[C@@]56CCCN5C[C@H](F)C6)nc4NCC4CC(=O)NC4=O)C3)c12 (stereo partly drawn) [Example 414, 3-(((7-(8-ethyl-7-fluoro-3-hydroxynaphthalen-1-yl)-2-(((2R,7aS)-2-fluorotetrahydro-1H-pyrrolizin-7a(5H)-yl)methoxy)-5,6,7,8-tetrahydropyrido[3,4-d]pyrimidin-4-yl)amino)methyl)pyrrolidine-2,5-dione] | 28.4 | 3000 | 8 |  | 935 | 7540 | 11 | 3 |  |  |  |  | 
CCc1c(F)ccc2cc(O)cc(N3CCc4c(nc(OC[C@@]56CCCN5C[C@H](F)C6)nc4N4C[C@H]5C[C@@H](C4)C(=O)NC5=O)C3)c12 [Example 416, (1R,5S)-7-(7-(8-ethyl-7-fluoro-3-hydroxynaphthalen-1-yl)-2-(((2R,7aS)-2-fluorohexahydro-1H-pyrrolizin-7a-yl)methoxy)-5,6,7,8-tetrahydropyrido[3,4-d]pyrimidin-4-yl)-3,7-diazabicyclo[3.3.1]nonane-2,4-dione] | 19.9 | 486 | 4 | 100 | 346 | 4710 | < 2 | < 2 |  |  |  |  | 
CCc1c(F)ccc2cc(O)cc(N3CCc4c(nc(OC[C@@]56CCCN5C[C@H](F)C6)nc4N4CCCC5(CSC5)C4)C3)c12 [Example 421, 5-ethyl-6-fluoro-4-(2-(((2R,7aS)-2-fluorohexahydro-1H-pyrrolizin-7a-yl)methoxy)-4-(2-thia-6-azaspiro[3.5]nonan-6-yl)-5,6-dihydropyrido[3,4-d]pyrimidin-7(8H)-yl)naphthalen-2-ol] | 449 | 377 | 5 | 322 | 275 | 9630 | 3 | < 2 | 3260 |  |  |  | 
CCc1c(F)ccc2cc(O)cc(N3CCc4c(nc(OC[C@@]56CCCN5C[C@H](F)C6)nc4N4Cc5cn(C(=O)N(C)C)nc5CC(C)(C)C4)C3)c12 [Example 424, 5-(7-(8-ethyl-7-fluoro-3-hydroxynaphthalen-1-yl)-2-(((2R,7aS)-2-fluorohexahydro-1H-pyrrolizin-7a-yl)methoxy)-5,6,7,8-tetrahydropyrido[3,4-d]pyrimidin-4-yl)-N,N,7,7-tetramethyl-5,6,7,8-tetrahydropyrazolo[4,3-c]azepine-2(4H)-carboxamide] | 148 | 926 | 31 | 698 | 460 | > 10000 | 9 | 5 |  |  |  |  | 
CCc1c(F)ccc2cc(O)cc(N3CCc4c(nc(OCC5(CN(C)C)CC5)nc4N4C[C@@H]5C[C@H](C4)[C@H](O)C5)C3)c12 [Example 431, (1R,5R,6R)-3-(2-((1-((dimethylamino)methyl)cyclopropyl)methoxy)-7-(8-ethyl-7-fluoro-3-hydroxynaphthalen-1-yl)-5,6,7,8-tetrahydropyrido[3,4-d]pyrimidin-4-yl)-3-azabicyclo[3.2.1]octan-6-ol] | 158 | 1410 | 6 |  | 1100 | > 10000 | < 2 | 2 |  |  |  |  | 
CCc1c(F)ccc2cc(O)cc(N3CCc4c(nc(OC[C@]56CCCN5[C@H](COC(=O)N(C)C)CC6)nc4N4CCC[C@@](C)(O)C4)C3)c12 [Example 435, ((3S,7aR)-7a-(((7-(8-ethyl-7-fluoro-3-hydroxynaphthalen-1-yl)-4-((R)-3-hydroxy-3-methylpiperidin-1-yl)-5,6,7,8-tetrahydropyrido[3,4-d]pyrimidin-2-yl)oxy)methyl)hexahydro-1H-pyrrolizin-3-yl)methyl dimethylcarbamate] | 40 | 172 | 2 | 164 | 578 | 4200 | 2 | 3 | 215 |  |  |  | 
O=S1(=O)CCC2(CCCN(c3nc(OC[C@@]45CCCN4C[C@H](F)C5)nc4c3CCN(c3cc(O)cc5cccc(Cl)c35)C4)C2)N1 (stereo partly drawn) [Example 513, 7-(7-(8-chloro-3-hydroxynaphthalen-1-yl)-2-(((2R,7aS)-2-fluorohexahydro-1H-pyrrolizin-7a-yl)methoxy)-5,6,7,8-tetrahydropyrido[3,4-d]pyrimidin-4-yl)-2-thia-1,7-diazaspiro[4.5]decane 2,2-dioxide] | 6 | 27 | 3 |  | 92 | 949 | < 2 | < 2 |  |  |  |  | 
CCc1c(F)ccc2cc(O)cc(N3CCc4c(nc(OC[C@@]56CCCN5C[C@H](F)C6)nc4N4CCCCn5nc(N)cc5C4)C3)c12 [Example 590, 4-(4-(2-amino-6,7,8,9-tetrahydropyrazolo[1,5-a][1,4]diazocin-5(4H)-yl)-2-(((2R,7aS)-2-fluorotetrahydro-1H-pyrrolizin-7a(5H)-yl)methoxy)-5,8-dihydropyrido[3,4-d]pyrimidin-7(6H)-yl)-5-ethyl-6-fluoronaphthalen-2-ol] | 40.8 | 391 | 4 |  | 277 | 9600 | < 2 | 2 |  |  |  |  | 

The remaining lines, values ahead:

IC50 (MKN1 cells; [1]) [nM] | IC50 (ASPC1 cells; Cisbio pERK HTRF) [nM] | IC50 (KRas G12D) [nM] | IC50 (A549 cells) [nM] | IC50 (H727 cells; Cisbio pERK HTRF) [nM] | IC50 (PSN1 cells; [2]) [nM] | IC50 (KRas G12R) [nM] | IC50 (KRas G12V) [nM] | IC50 (HCT116 cells) [nM] | IC50 (MKN1 cells; [3]) [nM] | IC50 (ASPC1 cells) [nM] | IC50 (H727 cells) [nM] | IC50 (PSN1 cells; 3 hr compound incubation) [nM] | Structure (SMILES)
37.2 | 533 | < 2 | 226 | 257 | 841 | < 2 | < 2 | 296 |  |  |  |  | O=C1CC2(CCCN(c3nc(OC[C@@]45CCCN4C[C@H](F)C5)nc4c3CCN(c3cc(O)cc5ccc(F)c(Cl)c35)C4)C2)C(=O)N1 (stereo partly drawn) [Example 467, 7-(7-(8-chloro-7-fluoro-3-hydroxynaphthalen-1-yl)-2-(((2R,7aS)-2-fluorohexahydro-1H-pyrrolizin-7a-yl)methoxy)-5,6,7,8-tetrahydropyrido[3,4-d]pyrimidin-4-yl)-2,7-diazaspiro[4.5]decane-1,3-dione]
10.7 | 11 | < 2 |  | 19 | 3230 | < 2 | < 2 |  |  |  |  |  | CCc1c(F)ccc2cc(O)cc(N3CCc4c(nc(OC[C@@]56CCCN5C[C@H](F)C6)nc4N4CCCn5nc(C(=O)N6CC7CN(C8COC8)CC7C6)cc5C4)C3)c12 (stereo partly shown) [Example 503]
 |  | < 2 |  |  |  | < 2 | < 2 |  | 70.3 | 48 | 100 | > 10000 | CCc1c(F)ccc2cc(O)cc(N3CCc4c(nc(OC[C@@]56CCCN5C[C@H](F)C6)nc4N4CCCn5ncc(CO)c5C4)C3)c12 [Example 633, 5-ethyl-6-fluoro-4-(2-(((2R,7aS)-2-fluorotetrahydro-1H-pyrrolizin-7a(5H)-yl)methoxy)-4-(3-(hydroxymethyl)-7,8-dihydro-4H-pyrazolo[1,5-a][1,4]diazepin-5(6H)-yl)-5,8-dihydropyrido[3,4-d]pyrimidin-7(6H)-yl)naphthalen-2-ol]
 |  | < 2 |  |  |  | < 2 | < 2 |  | 1.4 | 11 | 9 | 6000 | CCc1c(F)ccc2cc(O)cc(N3CCc4c(nc(OC[C@@]56CCCN5C[C@H](F)C6)nc4N4CCCn5nc(C(=O)N(C6CC6)C6CC6)cc5C4)C3)c12 [Example 637, N,N-dicyclopropyl-5-(7-(8-ethyl-7-fluoro-3-hydroxynaphthalen-1-yl)-2-(((2R,7aS)-2-fluorotetrahydro-1H-pyrrolizin-7a(5H)-yl)methoxy)-5,6,7,8-tetrahydropyrido[3,4-d]pyrimidin-4-yl)-5,6,7,8-tetrahydro-4H-pyrazolo[1,5-a][1,4]diazepine-2-carboxamide]
